≈ marks a conversion by molar mass, not a printed value. Where “and” joins values, the source holds several entries; their conditions need not be identical. Equal entries are not always repeated.
Assays:
[1] = test system: S. cerevisiae cells; experiment: Accumulation of T-2307 in S. cerevisiae cells; assay type: cell-based, Saccharomyces cerevisiae
[2] = molecular target: NADH dehydrogenase; experiment: NADH dehydrogenase activity, C. albicans; assay type: biochemical, Candida albicans; conditions: C. albicans mitochondria; involves complex I activity; read-out: IC50 against NADH dehydrogenase activity
[3] = test system: Saccharomyces cerevisiae; experiment: MIC determination, broth microdilution in semisynthetic medium; assay type: cell-based
Protocol: MIC was determined using the broth microdilution method based on the Clinical and Laboratory Standards Institute method with the following minor modifications ([38]). The medium used for MIC determination was semisynthetic medium, which was used for the measurement of intracellular ATP levels as described above. […].

[4] = molecular target: respiratory chain complex II + III (Bos taurus, UniProt P00125+P00157+P13272); experiment: MitoCheck complex II/III activity assay, bovine heart mitochondria; assay type: biochemical
[5] = molecular target: respiratory chain complex IV (Bos taurus, UniProt P00396+P00415+P68530); experiment: MitoCheck complex IV activity assay, bovine heart mitochondria; assay type: biochemical
[6] = molecular target: respiratory chain complex II (Saccharomyces cerevisiae, UniProt P21801+P33421+P37298+Q00711); experiment: Respiratory chain enzymatic activity, complex II, S. cerevisiae; assay type: biochemical
[7] = molecular target: respiratory chain complex IV (Candida albicans, UniProt P0C8K9+Q9B1P9+Q9B8D8); experiment: Respiratory chain enzymatic activity, complex IV, C. albicans; assay type: biochemical; conditions: C. albicans mitochondria; read-out: IC50 ± SD, Complex IV
[8] = test system: S. cerevisiae; conditions: cited from earlier work
[9] = molecular target: T1, respiratory chain complex II + III (Candida albicans, UniProt A0A1D8PHA3+A0A1D8PJX3+P0C8L0); experiment: Respiratory chain enzymatic activity, complexes II plus III, C. albicans; assay type: biochemical; conditions: C. albicans mitochondria; read-out: IC50 ± SD, Complex II + III
T1 sequence (P0C8L0 1-387): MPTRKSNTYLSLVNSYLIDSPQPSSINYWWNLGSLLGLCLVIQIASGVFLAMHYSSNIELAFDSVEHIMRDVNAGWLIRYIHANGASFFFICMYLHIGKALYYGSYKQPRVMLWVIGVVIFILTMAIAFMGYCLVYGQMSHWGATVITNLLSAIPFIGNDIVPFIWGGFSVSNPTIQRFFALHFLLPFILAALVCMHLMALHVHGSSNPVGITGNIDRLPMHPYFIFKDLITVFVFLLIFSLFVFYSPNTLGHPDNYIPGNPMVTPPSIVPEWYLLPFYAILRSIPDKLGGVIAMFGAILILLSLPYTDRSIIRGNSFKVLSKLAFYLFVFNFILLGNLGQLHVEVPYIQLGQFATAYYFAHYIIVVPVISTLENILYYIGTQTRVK
T1 sequence (A0A1D8PHA3 43-288): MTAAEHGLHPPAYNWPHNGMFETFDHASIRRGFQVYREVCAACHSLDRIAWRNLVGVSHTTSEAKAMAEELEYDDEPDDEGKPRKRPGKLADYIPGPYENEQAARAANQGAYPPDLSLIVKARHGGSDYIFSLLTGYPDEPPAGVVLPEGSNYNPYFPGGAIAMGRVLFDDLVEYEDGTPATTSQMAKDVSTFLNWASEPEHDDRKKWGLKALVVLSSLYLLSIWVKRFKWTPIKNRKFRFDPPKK
T1 sequence (A0A1D8PJX3 30-213): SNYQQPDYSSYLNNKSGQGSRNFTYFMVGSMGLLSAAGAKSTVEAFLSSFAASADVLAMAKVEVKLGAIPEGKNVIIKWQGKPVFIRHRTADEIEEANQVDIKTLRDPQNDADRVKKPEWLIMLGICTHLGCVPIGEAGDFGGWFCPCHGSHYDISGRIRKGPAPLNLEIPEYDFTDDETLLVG

Sequence of respiratory chain complex IV (Candida albicans, UniProt P0C8K9+Q9B1P9+Q9B8D8) (P0C8K9 whole entry): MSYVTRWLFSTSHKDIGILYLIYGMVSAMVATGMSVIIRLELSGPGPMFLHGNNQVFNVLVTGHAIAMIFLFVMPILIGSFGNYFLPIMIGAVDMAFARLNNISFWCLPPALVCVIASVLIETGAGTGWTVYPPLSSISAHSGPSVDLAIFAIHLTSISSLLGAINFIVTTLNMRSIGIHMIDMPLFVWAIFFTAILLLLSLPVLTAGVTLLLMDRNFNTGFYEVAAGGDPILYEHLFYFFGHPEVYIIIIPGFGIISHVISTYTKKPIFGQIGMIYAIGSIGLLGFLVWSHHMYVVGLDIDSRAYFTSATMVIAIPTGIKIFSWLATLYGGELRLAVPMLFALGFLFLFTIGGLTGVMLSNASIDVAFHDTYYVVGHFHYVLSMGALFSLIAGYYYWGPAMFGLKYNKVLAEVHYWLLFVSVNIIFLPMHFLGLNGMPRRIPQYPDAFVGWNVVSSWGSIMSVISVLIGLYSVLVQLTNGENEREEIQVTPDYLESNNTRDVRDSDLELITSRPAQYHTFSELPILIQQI
Sequence of respiratory chain complex IV (Candida albicans, UniProt P0C8K9+Q9B1P9+Q9B8D8) (Q9B8D8 whole entry): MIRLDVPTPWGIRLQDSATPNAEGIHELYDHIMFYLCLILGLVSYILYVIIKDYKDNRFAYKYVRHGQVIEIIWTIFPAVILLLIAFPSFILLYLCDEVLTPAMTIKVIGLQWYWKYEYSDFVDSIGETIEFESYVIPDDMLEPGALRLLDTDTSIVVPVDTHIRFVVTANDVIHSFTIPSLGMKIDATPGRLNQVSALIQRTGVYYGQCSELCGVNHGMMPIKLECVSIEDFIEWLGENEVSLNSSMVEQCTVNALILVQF
Sequence of respiratory chain complex IV (Candida albicans, UniProt P0C8K9+Q9B1P9+Q9B8D8) (Q9B1P9 whole entry): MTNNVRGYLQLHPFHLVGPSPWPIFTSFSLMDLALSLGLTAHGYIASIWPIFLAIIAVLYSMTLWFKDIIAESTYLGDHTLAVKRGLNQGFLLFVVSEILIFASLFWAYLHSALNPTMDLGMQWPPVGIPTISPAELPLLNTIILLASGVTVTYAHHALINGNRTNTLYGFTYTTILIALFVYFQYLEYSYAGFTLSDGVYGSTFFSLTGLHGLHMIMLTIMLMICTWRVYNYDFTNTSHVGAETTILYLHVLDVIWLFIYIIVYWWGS
Sequence of respiratory chain complex II (P21801 21-266): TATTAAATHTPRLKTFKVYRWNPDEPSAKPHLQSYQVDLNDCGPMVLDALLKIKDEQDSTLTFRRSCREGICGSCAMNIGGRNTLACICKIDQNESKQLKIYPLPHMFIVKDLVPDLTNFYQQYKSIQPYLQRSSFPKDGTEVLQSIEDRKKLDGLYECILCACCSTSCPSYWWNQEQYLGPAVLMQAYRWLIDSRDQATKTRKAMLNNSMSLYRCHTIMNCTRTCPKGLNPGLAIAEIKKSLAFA
Sequence of respiratory chain complex II (P33421 51-198): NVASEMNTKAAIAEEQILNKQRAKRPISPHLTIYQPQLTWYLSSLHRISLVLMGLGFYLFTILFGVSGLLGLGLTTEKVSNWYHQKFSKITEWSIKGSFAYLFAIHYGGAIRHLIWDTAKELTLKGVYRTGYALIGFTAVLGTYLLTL
Sequence of respiratory chain complex II (P37298 32-181): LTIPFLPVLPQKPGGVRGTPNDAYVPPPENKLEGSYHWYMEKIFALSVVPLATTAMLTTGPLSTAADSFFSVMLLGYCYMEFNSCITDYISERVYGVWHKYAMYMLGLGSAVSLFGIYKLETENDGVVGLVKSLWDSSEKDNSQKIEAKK
Sequence of respiratory chain complex II (Q00711 29-640): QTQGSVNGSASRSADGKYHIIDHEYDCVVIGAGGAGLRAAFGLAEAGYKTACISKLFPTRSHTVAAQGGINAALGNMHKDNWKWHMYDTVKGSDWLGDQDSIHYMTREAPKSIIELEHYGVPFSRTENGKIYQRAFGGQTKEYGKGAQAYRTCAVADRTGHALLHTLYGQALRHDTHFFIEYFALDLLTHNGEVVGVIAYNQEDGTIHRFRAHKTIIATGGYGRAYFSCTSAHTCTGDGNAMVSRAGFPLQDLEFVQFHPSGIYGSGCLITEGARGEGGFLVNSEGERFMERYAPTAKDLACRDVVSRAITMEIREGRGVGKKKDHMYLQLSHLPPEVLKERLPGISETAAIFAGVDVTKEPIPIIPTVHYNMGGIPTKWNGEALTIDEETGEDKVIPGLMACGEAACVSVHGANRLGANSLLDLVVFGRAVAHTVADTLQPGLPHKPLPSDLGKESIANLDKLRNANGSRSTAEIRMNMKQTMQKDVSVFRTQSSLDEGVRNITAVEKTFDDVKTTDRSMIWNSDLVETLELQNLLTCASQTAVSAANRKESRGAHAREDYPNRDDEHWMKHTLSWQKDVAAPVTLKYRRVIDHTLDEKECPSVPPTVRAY

N=C(N)c1ccc(OCCCC2CCN(CCCOc3ccc(C(=N)N)cc3)CC2)cc1 [T-2307]
concentration in cells relative to extracellular medium [1]: approximately 6,000 fold | IC50 [2]: 2000 µM | MIC ([3]; 72 h): 0.0068 µg/mL and 0.0156 µM | inhibition at 0.125 µM ([3]; read-out: growth inhibition): > 75% | IC50 for complexes II plus III in bovine heart mitochondria relative to yeast mitochondria [4]: > 10 fold | IC50 ([4]; bovine heart mitochondria, read-out: IC50 ± SD, Complex II + III): > 3000 µM | remaining activity at 3000 µM ([4]; read-out: remaining enzymatic activity of complexes II plus III): 93% | IC50 for complex IV in bovine heart mitochondria relative to yeast mitochondria [5]: > 10 fold | IC50 ([5]; bovine heart mitochondria, read-out: IC50 ± SD, Complex IV): > 3000 µM | remaining activity at 3000 µM ([5]; read-out: remaining enzymatic activity of complex IV): 92% | IC50 [6]: 755 ± 73 µM | IC50 [7]: 225 ± 23 µM | MIC reported previously [8]: 2 nM (≈ 0.875 ng/mL) | IC50 [9]: 220 ± 55 µM

Reference: PMC6658782, “The Novel Arylamidine T-2307 Selectively Disrupts Yeast Mitochondrial Function by Inhibiting Respiratory Chain Complexes” (Antimicrobial Agents and Chemotherapy, 2019)
